The values below come from patent publication US6136830A, “Sulphonyloxadiazolones and their use as microbicides” (Bayer Aktiengesellschaft, priority 1997, dated 2000).

SMILES strings stand for the structures.

System in the first data set: not listed separately
The experiment in a line: log P by HPLC (EEC-Directive 79/831 Annex V. A8). It is filed as physicochemical. Particulars: gradient method, acetonitrile/0.1% aqueous phosphoric acid. The protocol: The log P values were determined according to EEC-Directive 79/831 Annex V. A8 by HPLC (gradient method, acetonitrile/0.1% aqueous phosphoric acid).
By chromatographic logP is commonly meant lipophilicity estimated from chromatographic retention. Higher therefore signals higher lipophilicity. Consider `Cc1ccccc1Oc1noc(=O)n1S(=O)(=O)c1c(C)noc1C` [Example 7], for which the chromatographic logP is 3.28.

The compound `Cc1cccc(C)c1Oc1noc(=O)n1S(=O)(=O)c1c(C)noc1C` [Example 3] came in with a chromatographic logP of 3.54.

`COC(=O)c1ccc(Oc2noc(=O)n2S(=O)(=O)c2c(C)noc2C)cc1` [Example 2]: the chromatographic logP amounted to 3.07.

With `Cc1ccc(C(C)C)c(Oc2noc(=O)n2S(=O)(=O)c2c(C)noc2C)c1` [Example 4], the chromatographic logP stood at 4.19.

Consider `Cc1noc(C)c1S(=O)(=O)n1c(Oc2ccc(Cl)cc2)noc1=O` [Example 8], for which the chromatographic logP is 3.45.

Compound `Cc1ccc(Oc2noc(=O)n2S(=O)(=O)c2c(C)noc2C)c(C)c1` [Example 5] returned a chromatographic logP of 3.63. This chromatographic logP and that of the compound before are within 0.2 log units of each other.

The next data set relates to Phytophthora infestans. The data set can be described thus: whole plant or invertebrate. The settings on record: in Solanum lycopersicum, 72 h, read-out: Efficacy in %. It is filed as in vivo, Phytophthora infestans (on tomato plants).
On to `Cc1ccc(C)c(Oc2noc(=O)n2S(=O)(=O)c2c(C)noc2C)c1`, for which the pest or weed control at 50 g/ha was 94%.

With `Cc1cc(C)cc(Oc2noc(=O)n2S(=O)(=O)c2c(C)noc2C)c1`, the pest or weed control at 50 g/ha came out at 96%.

As to `Cc1ccc(Oc2noc(=O)n2S(=O)(=O)c2c(C)noc2C)c(C)c1` [drawing 40], the pest or weed control at 50 g/ha was determined as 94%.

`Cc1noc(C)c1S(=O)(=O)n1c(Oc2ccc(Cl)cc2)noc1=O` [drawing 44]: the pest or weed control at 50 g/ha was 97%.

With `Cc1noc(C)c1S(=O)(=O)n1c(N(C)C2CCCCC2)noc1=O`, the pest or weed control at 50 g/ha worked out at 85%.

Take `COC(=O)c1ccc(Oc2noc(=O)n2S(=O)(=O)c2c(C)noc2C)cc1` [drawing 39]: the pest or weed control at 50 g/ha came out at 86%.

On to `Cc1cc(C)cc(Oc2noc(=O)n2S(=O)(=O)c2c(N)noc2C)c1`, for which the pest or weed control at 50 g/ha came out at 95%.

Take `Cc1ccccc1Oc1noc(=O)n1S(=O)(=O)c1c(C)noc1C` [drawing 43]: the pest or weed control at 50 g/ha was determined as 94%.

For the compound `Cc1ccc(Oc2noc(=O)n2S(=O)(=O)c2c(N)noc2C)cc1C`, the pest or weed control at 50 g/ha was 95%.

Take `Cc1ccc(Oc2noc(=O)n2S(=O)(=O)c2c(C)noc2C)cc1C`: the pest or weed control at 50 g/ha turned out to be 95%.

For `COc1ccc(Oc2noc(=O)n2S(=O)(=O)c2c(N)noc2C)cc1`, the pest or weed control at 50 g/ha stood at 91%.

As to `Cc1ccc(C)c(Oc2noc(=O)n2S(=O)(=O)c2c(N)noc2C)c1`, the pest or weed control at 50 g/ha was 96%.

Turning to `Cc1ccc(C(C)C)c(Oc2noc(=O)n2S(=O)(=O)c2c(C)noc2C)c1` [drawing 42], the pest or weed control at 50 g/ha was 95%.

`Cc1cccc(C)c1Oc1noc(=O)n1S(=O)(=O)c1c(C)noc1C` [drawing 41]: the pest or weed control at 50 g/ha amounted to 88%.
